Laboratory results published in patent US20200397738A1, “METHODS FOR TREATING CANCER AND PROTECTING RENEWABLE TISSUES” (President and Fellows of Harvard College, priority 2018, published 2020).
One block for each compound: values may come before it.

Experiments:
[1] = biological target: MDM2/MDMX-mediated p53 ubiquitination (Homo sapiens, UniProt O15151+Q00987); test: cell-free assay with purified proteins, p53 ubiquitination; type: biochemical
[2] = test system: MCF-7 tumor xenografts; test: immunohistochemical analysis of MCF-7 tumor xenografts; type: in vivo; conditions: 10 mg/kg IP daily, relative to vehicle-treated mice
[3] = test system: thymus, spleen and duodenum; test: TUNEL analysis of IR- and doxorubicin-induced apoptosis in renewable tissues; type: in vivo, wild-type mice
Experimental: To assess the protective effects of Compound 1 on renewable tissues, wild-type mice were injected with Compound 1 at a dose of 4 mg/kg IP for 19 hours before 4 Gy ionizing radiation (IR) or exposure to doxorubicin (20 mg/kg).

[4] = test system: human breast cancer cells MCF-7; test: MCF-7 cell proliferation; type: cell-based; conditions: MCF-7, 10 μM
Experimental: To assess the impact of Compound 1 on cell proliferation, human breast cancer cells MCF-7 were treated with 10 μM of Compound 1.

[5] = test system: EZH2; test: half-life of EZH2 in splenocytes with cycloheximide; type: cell-based, mouse; conditions: 2 μg/ml 24 hours, then 100 μg/ml cycloheximide
Experimental: (§1) Half-life of EZH2 was measured in splenocytes isolated from wildtype mouse that had been pretreated with 2 μg/ml of Compound 1 for 24 hours followed by 100 μg/ml cycloheximide (CHX). […] To further confirm the effect of Compound 1 on EZH2 and H3K27me3, thymocytes isolated from wildtype mice were treated with 0, 0.5, 1, 3 or 5 μg/ml of Compound 1 for 12 hours. […] Furthermore, to validate the effect of Compound 1 on EZH2 and H3K27me3 in renewable tissues, wildtype mice were treated with 0 or 4 mg/kg of Compound 1 for 19 hours.

[6] = test system: EZH2; test: immunostaining of EZH2 and H3K27me3 in renewable tissues; type: in vivo, mice; conditions: thymus, spleen and duodenum, 4 mg/kg, 19 hours
Experimental: as §1

[7] = test system: EZH2; test: Western blot of EZH2 and H3K27me3 in thymocytes; type: cell-based, mice; conditions: thymocytes, 0.5, 1, 3 or 5 μg/ml, 12 hours
Experimental: as §1

[8] = biological target: T1, MDM2/MDMX complex (Homo sapiens, UniProt O15151+Q00987); test: cell-based mammalian two-hybrid assay
T1 construct: expressed in transfected cells

[9] = test system: HIF1; test: RT-qPCR of ALDHA in MCF-7 cells (marker of HIF1 activity); type: cell-based, human; conditions: MCF-7, 0-100 μg/ml
Text: The expression level of ALDHA was used as surrogate marker to assess the activity of HIF1.

[10] = test system: MCF-7 xenograft tumors; test: growth of MCF-7 xenograft tumors; type: in vivo; conditions: 10 mg/kg IP daily, compared to vehicle-treated mice
Text: Expression of GLUT1 and PGK1 serves as markers of aggressive biological behavior and identifies a worse prognosis in breast cancer patients.

[11] = test system: p53; test: RT-qPCR of CDKN1A/p21 in MCF-7 cells (marker of p53 activity); type: cell-based, human; conditions: MCF-7, 0-100 μg/ml
Experimental: (§2) To assess the impact of Compound 1 and preserved p53 on apoptosis, human breast cancer cells MCF-7 were treated with increasing doses (0-100 μg/ml) of Compound 1. […] The expression level of the pro-apoptotic gene p21 was used as surrogate marker to assess the activity of p53. […] C57BL/6 mice were treated with, PBS, Nutlin 3A (200 mg/kg) or Compound 1 (200 mg/kg). The mice were sacrificed 24 hours later, and caspase-3 expression was assessed in thymus, a tissue very sensitive to p53-induced apoptosis.

[12] = biological target: T2, MDM2/MDMX complex (Mus musculus, UniProt O35618+P23804); test: immunoprecipitation with anti-Mdmx antibody and immunoblot in splenocytes; type: cell-based; conditions: splenocytes from wild-type mice, 2 or 5 μg/ml, 24 hour
T2 construct: endogenous in cells; host or cells: primary splenocytes from wild-type mice
Experimental: A small molecule compound, referred to herein as Compound 1 was used to dissociate and reduce the MDM2/MDMX complex, and preserve p53. […] To further verify this finding, splenocytes from wild-type mice were treated with 2 or 5 μg/ml of Compound 1, or vehicle for 24 hour.

[13] = test system: thymocytes; test: IR-induced killing of thymocytes, cell count; type: cell-based, mice
Experimental: Thymocytes isolated from wildtype mice were treated with 2 μg/ml of Compound 1 for 24 hours, in absence or presence of 2 μM GSK126, followed by 0 Gy or 5 Gy IR. Cell numbers were counted 48 hours after IR to assess the effect of Compound 1 and EZH2 inhibition on IR-induced killing.

[14] = test system: thymus, spleen and duodenum; test: TUNEL analysis of IR- and doxorubicin-induced apoptosis in renewable tissues; type: in vivo, wild-type mice; conditions: doxorubicin 20 mg/kg alone (Compound 1 0 mg/kg)
[15] = test system: thymus; test: acute toxicity experiment, caspase-3 in thymus; conditions: 200 mg/kg, 24 hours
Experimental: as §2

T2 sequence (P23804 whole entry): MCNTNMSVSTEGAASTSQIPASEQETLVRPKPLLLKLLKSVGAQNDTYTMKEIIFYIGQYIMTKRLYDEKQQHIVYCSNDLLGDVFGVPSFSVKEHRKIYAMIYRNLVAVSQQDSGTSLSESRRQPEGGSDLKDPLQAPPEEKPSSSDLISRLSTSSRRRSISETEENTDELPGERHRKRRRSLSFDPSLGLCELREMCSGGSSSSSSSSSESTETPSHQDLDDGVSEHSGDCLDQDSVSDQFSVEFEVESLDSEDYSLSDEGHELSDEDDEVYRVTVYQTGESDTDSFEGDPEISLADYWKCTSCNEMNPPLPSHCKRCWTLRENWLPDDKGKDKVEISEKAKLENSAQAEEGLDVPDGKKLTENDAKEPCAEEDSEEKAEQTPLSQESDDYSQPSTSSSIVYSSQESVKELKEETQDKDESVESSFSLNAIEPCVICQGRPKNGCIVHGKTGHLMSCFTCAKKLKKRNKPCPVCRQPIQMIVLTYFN
T2 sequence (O35618 whole entry): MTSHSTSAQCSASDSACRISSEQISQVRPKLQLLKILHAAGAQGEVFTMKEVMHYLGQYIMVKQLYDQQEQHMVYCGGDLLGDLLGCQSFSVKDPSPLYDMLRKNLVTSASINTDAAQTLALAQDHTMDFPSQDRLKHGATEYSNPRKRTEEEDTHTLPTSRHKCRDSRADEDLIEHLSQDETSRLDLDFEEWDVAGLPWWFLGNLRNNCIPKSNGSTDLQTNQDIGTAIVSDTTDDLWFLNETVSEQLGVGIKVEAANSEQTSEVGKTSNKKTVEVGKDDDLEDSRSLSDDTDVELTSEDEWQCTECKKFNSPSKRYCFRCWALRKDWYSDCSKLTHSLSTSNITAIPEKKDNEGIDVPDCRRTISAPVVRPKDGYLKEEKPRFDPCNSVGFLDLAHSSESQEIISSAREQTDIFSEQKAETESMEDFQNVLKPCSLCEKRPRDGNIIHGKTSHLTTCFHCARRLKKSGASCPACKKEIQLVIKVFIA
Sequence of MDM2/MDMX-mediated p53 ubiquitination (Q00987 whole entry): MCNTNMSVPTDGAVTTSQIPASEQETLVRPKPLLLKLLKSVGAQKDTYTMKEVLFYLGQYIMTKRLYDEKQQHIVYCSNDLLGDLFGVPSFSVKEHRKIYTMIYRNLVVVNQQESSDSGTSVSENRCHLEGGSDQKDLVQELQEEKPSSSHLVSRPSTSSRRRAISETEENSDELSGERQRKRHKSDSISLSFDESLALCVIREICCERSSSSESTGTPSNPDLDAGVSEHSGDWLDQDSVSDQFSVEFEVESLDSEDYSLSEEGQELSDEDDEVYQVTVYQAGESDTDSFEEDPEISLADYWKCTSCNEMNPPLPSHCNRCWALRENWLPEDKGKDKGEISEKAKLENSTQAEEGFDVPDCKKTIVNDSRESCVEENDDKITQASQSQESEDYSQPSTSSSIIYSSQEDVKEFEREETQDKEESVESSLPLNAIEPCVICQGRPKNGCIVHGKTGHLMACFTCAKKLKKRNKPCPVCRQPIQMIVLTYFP
Sequence of MDM2/MDMX-mediated p53 ubiquitination (O15151 whole entry): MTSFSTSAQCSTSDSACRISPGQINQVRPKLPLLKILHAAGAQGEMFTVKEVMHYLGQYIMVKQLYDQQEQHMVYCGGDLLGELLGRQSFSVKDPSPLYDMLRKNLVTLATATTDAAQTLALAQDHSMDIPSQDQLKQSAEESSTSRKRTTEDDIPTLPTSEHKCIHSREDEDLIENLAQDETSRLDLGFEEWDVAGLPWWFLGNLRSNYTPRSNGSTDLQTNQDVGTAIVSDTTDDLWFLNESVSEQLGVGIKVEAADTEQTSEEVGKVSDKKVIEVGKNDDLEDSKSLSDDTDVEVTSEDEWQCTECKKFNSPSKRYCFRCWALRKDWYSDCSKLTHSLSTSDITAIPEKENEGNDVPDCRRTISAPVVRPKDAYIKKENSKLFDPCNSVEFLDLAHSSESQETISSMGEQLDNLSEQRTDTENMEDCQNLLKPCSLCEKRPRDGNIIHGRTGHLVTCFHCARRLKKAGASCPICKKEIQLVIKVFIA
T1 sequence (Q00987 whole entry): as the sequence (Q00987 whole entry) above
T1 sequence (O15151 whole entry): as the sequence (O15151 whole entry) above

disassociation of the MDM2/MDMX complex [8]: dose-dependent disassociation | disassociation of the MDM2/MDMX complex [12]: disassociation
SMILES: COC(=O)C1(Cc2ccc(C)c(C/C=C(/C)Cl)c2)OC(=O)C(O)C1c1ccc(O)cc1 (stereo not drawn) [Compound 1]
MDM2/MDMX-mediated p53 ubiquitination and degradation [1]: blocking MDM2/MDMX-mediated p53 ubiquitination and degradation | expression of PUMA in tumors [2]: little to no change | expression of p21 in tumors [2]: little to no change | glycolytic marker GLUT1 in tumors [2]: lower level | glycolytic marker PGK1 in tumors [2]: lower level | p53 level in tumors [2]: readily detectable levels of p53 | proliferation marker Ki-67 in tumors [2]: lower level | TUNEL apoptosis ([3]; Duodenum, 4 Gy IR, Compound 1 4 mg/kg IP 19 hours before): 1 ± 0.3% | TUNEL apoptosis ([3]; Duodenum, Control (no IR or doxorubicin), Compound 1 4 mg/kg IP): 0% | TUNEL apoptosis ([3]; Duodenum, doxorubicin 20 mg/kg, Compound 1 4 mg/kg IP 19 hours before): 3 ± 0.1% | TUNEL apoptosis ([3]; Spleen, 4 Gy IR, Compound 1 4 mg/kg IP 19 hours before): 7 ± 0.2% | TUNEL apoptosis ([3]; Spleen, Control (no IR or doxorubicin), Compound 1 4 mg/kg IP): 0% | TUNEL apoptosis ([3]; Spleen, doxorubicin 20 mg/kg, Compound 1 4 mg/kg IP 19 hours before): 1 ± 0.1% | TUNEL apoptosis ([3]; Thymus, 4 Gy IR, Compound 1 4 mg/kg IP 19 hours before): 22 ± 4% | TUNEL apoptosis ([3]; Thymus, Control (no IR or doxorubicin), Compound 1 4 mg/kg IP): 0% | TUNEL apoptosis ([3]; Thymus, doxorubicin 20 mg/kg, Compound 1 4 mg/kg IP 19 hours before): 1 ± 0.2% | cell proliferation [4]: considerable reduction in cell proliferation | half-life of EZH2 [5]: prolonged half-life | EZH2 immunostaining [6]: induction | H3K27me3 immunostaining [6]: induction | level of EZH2 [7]: significantly induced levels | level of H3K27me3 [7]: significantly induced levels | mRNA level of ALDHA [9]: significant decrease | tumor growth [10]: significant growth delay | mRNA level of p21 [11]: little induction | IR-induced cell death ([13]; 2 μg/ml 24 hours, 5 Gy IR, counted 48 hours after IR): significantly attenuated

SMILES: COc1cccc2c1C(=O)c1c(O)c3c(c(O)c1C2=O)C[C@@](O)(C(=O)CO)C[C@@H]3O[C@H]1C[C@H](N)[C@H](O)[C@H](C)O1 [Doxorubicin, doxorubicin]
TUNEL apoptosis ([14]; Duodenum): 15 ± 1.1% | TUNEL apoptosis ([14]; Spleen): 22 ± 0.2% | TUNEL apoptosis ([14]; Thymus): 15 ± 0.1%

SMILES: CC[C@H](C)n1cc(C)c2c(C(=O)NCc3c(C)cc(C)[nH]c3=O)cc(-c3ccc(N4CCNCC4)nc3)cc21 [GSK126, reference compound]
protective effect of Compound 1 against IR-induced cell death ([13]; 2 μM GSK126 with 2 μg/ml Compound 1, 5 Gy IR): reversed

SMILES: COc1ccc(C2=N[C@@H](c3ccc(Cl)cc3)[C@@H](c3ccc(Cl)cc3)N2C(=O)N2CCNC(=O)C2)c(OC(C)C)c1 [Nutlin 3A]
caspase-3 activation (apoptosis) in thymus [15]: considerable apoptosis
